Measured values reported in PubChem BioAssay (NCI).
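At the GI50, growth is halved. Definition used: TGI = concentration required for complete inhibition of growth.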

How the values were obtained:
Assay in all cases: DTP human tumour cell line panel, 384-well format
A498 renal = system: A498 renal
A549 NSCLC = system: A549 NSCLC
ACHN renal = system: ACHN renal
BT-549 breast = system: BT-549 breast
CAKI-1 renal = system: CAKI-1 renal
COLO 205 colon = system: COLO 205 colon
DU-145 prostate = system: DU-145 prostate
EKVX NSCLC = system: EKVX NSCLC
HCC-2998 colon = system: HCC-2998 colon
HCT-116 colon = system: HCT-116 colon
HCT-15 colon = system: HCT-15 colon
HL-60(TB) leukemia = system: HL-60(TB) leukemia
HOP-62 NSCLC = system: HOP-62 NSCLC
HS 578T breast = system: HS 578T breast
IGROV1 ovarian = system: IGROV1 ovarian
KM12 colon = system: KM12 colon
LOX IMVI melanoma = system: LOX IMVI melanoma
M14 melanoma = system: M14 melanoma
MALME-3M melanoma = system: MALME-3M melanoma
MCF7 breast = system: MCF7 breast
MDA-MB-231 breast = system: MDA-MB-231 breast
MDA-MB-435 melanoma = system: MDA-MB-435 melanoma
MDA-MB-468 breast = system: MDA-MB-468 breast
MOLT-4 leukemia = system: MOLT-4 leukemia
NCI-H226 lung = system: NCI-H226 lung
NCI-H23 lung = system: NCI-H23 lung
NCI-H322M lung = system: NCI-H322M lung
NCI-H460 NSCLC = system: NCI-H460 NSCLC
NCI-H522 lung = system: NCI-H522 lung
NCI/ADR-RES ovarian = system: NCI/ADR-RES ovarian
OVCAR-3 ovarian = system: OVCAR-3 ovarian
OVCAR-4 ovarian = system: OVCAR-4 ovarian
OVCAR-5 ovarian = system: OVCAR-5 ovarian
PC-3 prostate = system: PC-3 prostate
RPMI-8226 leukemia = system: RPMI-8226 leukemia
SF-268 CNS = system: SF-268 CNS
SF-295 CNS = system: SF-295 CNS
SF-539 CNS = system: SF-539 CNS
SK-MEL-28 melanoma = system: SK-MEL-28 melanoma
SK-MEL-5 melanoma = system: SK-MEL-5 melanoma
SK-OV-3 ovarian = system: SK-OV-3 ovarian
SN12C renal = system: SN12C renal
SNB-75 CNS = system: SNB-75 CNS
SR leukemia = system: SR leukemia
TK-10 renal = system: TK-10 renal
U251 glioblastoma = system: U251 glioblastoma
UACC-257 melanoma = system: UACC-257 melanoma
UACC-62 melanoma = system: UACC-62 melanoma

## CC(C)(C)c1cnc(CSc2cnc(NC(=O)C3CCNCC3)s2)o1
A498 renal
  GI50: 240 nM
  TGI: 627 nM
A549 NSCLC
  GI50: 101 nM
  TGI: > 100 µM
ACHN renal
  GI50: 950 nM
  TGI: 34.1 µM
BT-549 breast
  GI50: 114 nM
  TGI: 277 nM
CAKI-1 renal
  GI50: 394 nM
  TGI: > 100 µM
COLO 205 colon
  GI50: 25 nM
  TGI: 62.8 nM
DU-145 prostate
  GI50: 42 nM
  TGI: 299 nM
EKVX NSCLC
  GI50: 204 nM
  TGI: 1070 nM
HCC-2998 colon
  GI50: 51.8 nM
  TGI: 208 nM
HCT-116 colon
  GI50: 32.3 nM
  TGI: > 100 µM
HCT-15 colon
  GI50: 2450 nM
  TGI: > 100 µM
HL-60(TB) leukemia
  GI50: 14.3 nM
  TGI: 27.5 nM
HOP-62 NSCLC
  GI50: 66 nM
  TGI: 330 nM
HS 578T breast
  GI50: 136 nM
  TGI: 431 nM
IGROV1 ovarian
  GI50: 53.1 nM
  TGI: 566 nM
KM12 colon
  GI50: 35 nM
  TGI: 13.7 µM
LOX IMVI melanoma
  GI50: 24.1 nM
  TGI: 59.9 nM
M14 melanoma
  GI50: 166 nM
  TGI: 425 nM
MALME-3M melanoma
  GI50: 123 nM
  TGI: 264 nM
MCF7 breast
  GI50: 29.8 nM
  TGI: 16.9 µM
MDA-MB-231 breast
  GI50: 62.4 nM
  TGI: > 100 µM
MDA-MB-435 melanoma
  GI50: 113 nM
  TGI: 322 nM
MDA-MB-468 breast
  GI50: 50.8 nM
  TGI: 176 nM
MOLT-4 leukemia
  GI50: 37.4 nM
  TGI: 104 nM
NCI-H226 lung
  GI50: 188 nM
  TGI: 680 nM
NCI-H23 lung
  GI50: 78.3 nM
  TGI: 212 nM
NCI-H322M lung
  GI50: 38.1 nM
  TGI: 159 nM
NCI-H460 NSCLC
  GI50: 68.6 nM
  TGI: 256 nM
NCI-H522 lung
  GI50: 147 nM
  TGI: 306 nM
NCI/ADR-RES ovarian
  GI50: 26.3 µM
  TGI: > 100 µM
OVCAR-3 ovarian
  GI50: 46.4 nM
  TGI: 221 nM
OVCAR-4 ovarian
  GI50: 63.7 nM
  TGI: 368 nM
OVCAR-5 ovarian
  GI50: 25.2 nM
  TGI: 59.4 nM
PC-3 prostate
  GI50: 70.9 nM
  TGI: 397 nM
RPMI-8226 leukemia
  GI50: 27.3 nM
  TGI: 70.4 nM
SF-268 CNS
  GI50: 41 nM
  TGI: 264 nM
SF-295 CNS
  GI50: 373 nM
  TGI: 27.1 µM
SF-539 CNS
  GI50: 35.4 nM
  TGI: 134 nM
SK-MEL-28 melanoma
  GI50: 120 nM
  TGI: 285 nM
SK-MEL-5 melanoma
  GI50: 109 nM
  TGI: 249 nM
SK-OV-3 ovarian
  GI50: 192 nM
  TGI: > 100 µM
SN12C renal
  GI50: 38.4 nM
  TGI: 186 nM
SNB-75 CNS
  GI50: 124 nM
  TGI: 278 nM
SR leukemia
  GI50: 12.1 nM
  TGI: 24.6 nM
TK-10 renal
  GI50: 232 nM
  TGI: 799 nM
U251 glioblastoma
  GI50: 107 nM
  TGI: 547 nM
UACC-257 melanoma
  GI50: 166 nM
  TGI: 350 nM
UACC-62 melanoma
  GI50: 47.3 nM
  TGI: 191 nM
